Source: patent US20160324884A1, “TREATMENT OF DIABETES WITH PENTACYCLIC TRITERPENOID SAPONIN COMPOUNDS FROM SZECHUAN MELANDIUM ROOT” (priority 2013, published 2016)
Entries after “also recorded” stand apart in the source; their conditions may differ.

What was measured:
Format in all cases: in vivo
KK^Ay mice [1] = assay: Effects of Wacao saponins on glycemia in KK^Ay T2DM mice (Example 2); conditions: for glycemia (fasting tail blood glucose), hypoglycemic activity: after 1 week; for anti-hyperglycemia effect, compounds compared with each other: 2.0 mg/kg BW Sc, 2 weeks, ranking
Excerpt: (§1) 80 male KK^Ay mice (12 weeks of age, License NO. SCXK (BJ) 2009-0015, Beijing Huafukang Biology Technology Co. Ltd.) and 10 male normal C57BL/6 mice (12 weeks of age, License NO. SCXK (BJ) 2009-0015, Beijing Huafukang Biology Technology Co. Ltd.) were adaptively bred for one week, and then used in the pharmacological experiment.
The animals were housed individually in wood-chip-bedded plastic cages. Germ-free and high-fat diets (Beijing Huafukang Biology Technology Co. Ltd.) were used to feed the KK^Ay mice, and the standard laboratory chows were used to feed normal C57BL/6 mice. All the animals had free access to food and water.
80 KK^Ay mice were adaptively bred for 1 week, and then randomly assigned into 8 groups: Model group, Compound (1) group, Compound (2) group, Compound (3) group, Compound (4) group, Compound (7) group, Compound (8) group and metformin group, 10 mice per group. 10 normal C57BL/6 mice were used as the control group. KK^Ay mice were fed with the high-fat diet, and the control group was fed with the normal control diet. The control and model groups were hypodermically injected with sterile water, 6 medicated groups were hypodermically injected with 6 kinds of Wacao saponins, the Compounds (1), (2), (3), (4), (7) and (8), and the positive group (metformin group) was irrigated per oral. All groups were administrated at 9 am for 2 weeks. The administrating volume is 10 ml/kg BW and the administration dosage is shown in Table3.
All mice of the fasting tail blood glucose level were measured weekly using One Touch ULTRA Glucometer (Life Scan Johnson and Johnson, USA).
Each compound of Wacao saponins was dissolved into sterile water and sterilized with filtration for Sc. The metformin was dissolved into sterile water for lg. The control and model group mice were injected with sterile water, Sc. All the animals were treated at 9 am for 2 weeks.
Overnight fasting tail blood glucose level was measured weekly using One Touch ULTRA Glucometer and measured for twice.
Each group was administrated for 2 weeks (14 days) and then the experiment was terminated.
Results are expressed as means±SD. Statistical analysis were analyzed by using SPSS 10.0 software. Data were evaluated with analysis of variance.

KK^Ay mice [2] = assay: Hepatic and muscle glycogen in KK^Ay mice (Example 3); conditions: 2.0 mg/kg Sc, after 2 weeks, vs model group
Excerpt: (§2) 60 KK^Ay mice were adaptively bred for 1 week, and then randomly assigned into 6 groups: Model group, Compound (1) group, Compound (2) group, Compound (3) group, Compound (4) group, and metformin group, 10 mice per group. 10 normal C57BL/6 mice were used for the control group. KK^Ay mice were in a high-fat diet, and the control normal mice were in a normal control diet. The control and model groups were hypodermically injected with sterile water, the 6 medicated groups mice were subcutaneously injected with […] Wacao saponins, (Compounds (1), (2), (3) and (4)) respectively, and the positive group was administered metformin by gavage. All mice were administrated at 9 am for 2 weeks and the administration volume is 10 ml/kg BW.
(§3) The body weight, food and water intake of each mouse was measured and recorded weekly throughout the course of the experiment. At the end of the experiment, collected the blood and separated serum, fasting blood glucose, insulin levels and insulin sensitivity index (ISI) were measured or calculated in each group. Liver, skeletal muscles of mice in each group were taken and weighed for detecting glycogen levels of the hepatic and muscles after mice being killed.
(§4) Compound (1), (2), (3) and (4) were respectively dissolved into sterile water, and sterilized with filtration for Sc. to the medication groups. The metformin was dissolved into sterile water for lg. to the positive control group. Control and model groups animals were injected with sterile water (10 ml/kg BW), Sc. All the animals were treated daily at 9 am for 2 weeks (14 days).
(§5) Blood detection: Blood glucose was measured weekly. Overnight fasting glycemia level was measured with One Touch ULTRA Glucometer for the tail blood test. At the end of the experiment, blood serum was collected for measuring levels of fasting blood glucose and insulin, and the insulin sensitivity index (ISI) was calculated. At the same time, hepatic tissues and skeletal muscles of mice were taken out to determine levels of hepatic and muscle glycogen by detection kits.

KK^Ay mice [3] = assay: Glycemia in KK^Ay mice during treatment and after withdrawal (Example 3)
Excerpt: as §1, with “60” for “80”, “10 normal” for “10”, “male” for “male normal”, “following” for “pharmacological”
as §2, §4, §5
Termination of the experiment After administrating mice for 2 weeks (14 days), the experiment was terminated.
This experiment is to observe the anti-hyperglycemia effects of Wacao saponins on KK^Ay mice during and after the period of drug treatment, respectively.

KK^Ay mice [4] = assay: Body weight, food and water intake in KK^Ay mice (Example 3); conditions: after 1 week, compounds 2.0 mg/kg Sc, metformin 500 mg/kg lg, vs model group
Excerpt: as §1, with “60” for “80”, “10 normal” for “10”, “male” for “male normal”, “following” for “pharmacological”
The animals were housed individually in wood-chip-bedded plastic cages. Germ-free and high-fat diets (Beijing Huafukang Biology Technology Co. Ltd.) were used to feed the KK^Ay mice. All the animals had free access to food and water.
as §2, §3, §4
Measurement of food and water intake: 24 hours' food and water intake were measured by gravimetry once a week. It should be paid attention to recycling leakage of small forage into the feed box to ensure the accuracy of food intake.
Determination of body weight: The body weight of mice was measured and recorded once a week.
Results are shown as means±SD. Statistical analysis data were analyzed by using SPSS 10.0 software. Data were evaluated with analysis of variance.

[5] = 2.0 mg/kg BW Sc daily, vs model group

sinocrassuloside XII [Compound (7)] was tested, and the “glycemia (fasting tail blood glucose), hypoglycemic activity” value (“glycemia … hypoglycemic activity” below) (KK^Ay mice [1]; [5]) was “then followed by Compound (2), Compound (4), Compound (3) and Compound (7)” and the “anti-hyperglycemia effect, compounds compared with each other” value (KK^Ay mice [1]) was “followed by Compound (3) and (4) (cis-trans-isomers), and Compound (7)”.

For COC(=O)C1OC(O[C@H]2CC[C@]3(C)[C@H]4C=CC5[C@@H]6CC(C)(C)C[C@@H](C(=O)OC7OC(C)C(OC(=O)/C=C/c8ccc(C)cc8)C(OC(C)=O)C7OC7OC(C)C(O)C(O)C7O)C6[C@H](O)C[C@@]5(C)[C@]4(C)CC[C@H]3[C@]2(C)C=O)C(OC2CC(CO)C(O)C(O)C2O)C(OC2OCC(O)C(O)C2O)C1O (some centres unmarked) [Compound (3), sinocrassuloside VIII], the muscle glycogen level (KK^Ay mice [2]) was “weaker efficacy in raising level of muscle glycogen which had no statistical significant difference compared with that of the model group”, the “glycemia … hypoglycemic activity” value (KK^Ay mice [1]; [5]) was “then followed by Compound (2), Compound (4), Compound (3) and Compound (7)” and the “anti-hyperglycemia effect, compounds compared with each other” value (KK^Ay mice [1]) was “followed by Compound (3) and (4) (cis-trans-isomers), and Compound (7)”. For the same compound, the “descending rates of blood glucose” value (KK^Ay mice [3]; T2DM mice, 2 mg/kg, two weeks after subcutaneous injection) was 60%.

In the case of CN(C)C(=N)N=C(N)N [metformin, reference compound], the “glycemic level after drug withdrawal” value (KK^Ay mice [3]; KK^Ay mice, 2 weeks after stopping 2-week medication, vs model (untreated) group) was “rebounded to a high level which showed no significant difference compared with that of the model group” and the food intake (KK^Ay mice [4]) was “decreased obviously”.

sinocrassuloside XIII [Compound (8)] was tested, and the “glycemia … hypoglycemic activity” value (KK^Ay mice [1]; 2.0 mg/kg BW Sc daily, vs model group, 2 mg/kg) was “weakest hypoglycemic activity which has no significant difference compared with that of the model group; also recorded: only the trend of anti-hyperglycemia activity, but showed no statistical difference”, the “glycemia (fasting tail blood glucose)” value (KK^Ay mice [1]; 2.0 mg/kg BW Sc daily, after 2 weeks, vs model group) was “Significant differences appeared” and the “anti-hyperglycemia effect, compounds compared with each other” value (KK^Ay mice [1]) was “no significant effect of anti-hyperglycemia compared with that of the other compounds”.
